# Reference: ChEMBL document CHEMBL1201862, “PubChem BioAssay data set” (2004)
# Calls of active or inactive are those of the source.
# How the values were obtained:
# [1] = molecular target: T1, Methionyl-tRNA synthetase, putative (Trypanosoma brucei brucei, UniProt Q38C91); format: functional, Trypanosoma brucei brucei strain 927/4 GUTat10.1
# T1 sequence (Q38C91 whole entry): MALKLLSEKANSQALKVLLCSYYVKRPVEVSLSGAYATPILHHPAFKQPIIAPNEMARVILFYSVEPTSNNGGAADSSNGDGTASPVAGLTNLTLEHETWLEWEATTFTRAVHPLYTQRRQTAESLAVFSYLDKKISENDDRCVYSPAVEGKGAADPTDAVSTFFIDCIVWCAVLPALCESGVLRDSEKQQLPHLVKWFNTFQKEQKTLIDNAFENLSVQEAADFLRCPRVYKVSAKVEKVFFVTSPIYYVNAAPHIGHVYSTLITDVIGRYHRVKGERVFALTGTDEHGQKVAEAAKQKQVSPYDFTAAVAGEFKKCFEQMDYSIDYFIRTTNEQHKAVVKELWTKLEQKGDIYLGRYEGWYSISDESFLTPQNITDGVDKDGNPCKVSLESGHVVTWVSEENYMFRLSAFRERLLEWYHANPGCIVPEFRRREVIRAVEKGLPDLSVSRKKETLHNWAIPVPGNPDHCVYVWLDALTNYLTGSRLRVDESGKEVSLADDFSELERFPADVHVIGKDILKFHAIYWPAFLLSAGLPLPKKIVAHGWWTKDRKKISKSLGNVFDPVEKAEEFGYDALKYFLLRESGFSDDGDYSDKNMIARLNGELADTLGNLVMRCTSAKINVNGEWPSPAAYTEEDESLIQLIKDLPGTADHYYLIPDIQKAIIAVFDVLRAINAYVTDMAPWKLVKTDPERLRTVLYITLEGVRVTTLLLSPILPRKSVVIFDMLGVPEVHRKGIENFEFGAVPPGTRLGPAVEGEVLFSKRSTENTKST
# [2] = molecular target: T1, Methionyl-tRNA synthetase, putative; format: functional, Trypanosoma brucei brucei strain 927/4 GUTat10.1; remark: listed apart in the source
# [3] = molecular target: T2, Leucine aminopeptidase (Plasmodium falciparum 3D7, UniProt Q8IL11); test: P. falciparum M17LAP inhibitors, primary screen, biochemical, fluorogenic H-Leu-NHMec substrate, 1536-well (AID 1619); format: functional
# T2 sequence (Q8IL11 whole entry): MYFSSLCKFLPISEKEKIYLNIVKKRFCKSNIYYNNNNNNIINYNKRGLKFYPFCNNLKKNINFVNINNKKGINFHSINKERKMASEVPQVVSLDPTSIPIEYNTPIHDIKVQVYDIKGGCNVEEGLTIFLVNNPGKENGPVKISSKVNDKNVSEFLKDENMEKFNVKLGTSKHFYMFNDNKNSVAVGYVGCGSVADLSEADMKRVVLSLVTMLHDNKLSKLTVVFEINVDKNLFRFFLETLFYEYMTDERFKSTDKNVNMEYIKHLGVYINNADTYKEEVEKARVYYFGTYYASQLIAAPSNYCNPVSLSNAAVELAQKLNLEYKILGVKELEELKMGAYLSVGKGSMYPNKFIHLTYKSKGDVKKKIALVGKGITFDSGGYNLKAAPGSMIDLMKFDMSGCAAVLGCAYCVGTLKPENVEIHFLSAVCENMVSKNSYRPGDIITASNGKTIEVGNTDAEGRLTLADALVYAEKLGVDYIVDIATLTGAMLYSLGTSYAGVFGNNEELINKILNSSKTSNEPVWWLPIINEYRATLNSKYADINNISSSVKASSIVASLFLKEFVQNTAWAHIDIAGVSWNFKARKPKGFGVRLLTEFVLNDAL
# [4] = molecular target: T3, Aminopeptidase N (Plasmodium falciparum FcB1/Columbia, UniProt O96935); test: malaria alanyl aminopeptidase activity blockers – biochemical, fluorogenic H-Leu-NHMec substrate, 1536-well (AID 1445); design: species or system Plasmodium falciparum 3D7, 3D7
# T3 sequence (O96935 whole entry): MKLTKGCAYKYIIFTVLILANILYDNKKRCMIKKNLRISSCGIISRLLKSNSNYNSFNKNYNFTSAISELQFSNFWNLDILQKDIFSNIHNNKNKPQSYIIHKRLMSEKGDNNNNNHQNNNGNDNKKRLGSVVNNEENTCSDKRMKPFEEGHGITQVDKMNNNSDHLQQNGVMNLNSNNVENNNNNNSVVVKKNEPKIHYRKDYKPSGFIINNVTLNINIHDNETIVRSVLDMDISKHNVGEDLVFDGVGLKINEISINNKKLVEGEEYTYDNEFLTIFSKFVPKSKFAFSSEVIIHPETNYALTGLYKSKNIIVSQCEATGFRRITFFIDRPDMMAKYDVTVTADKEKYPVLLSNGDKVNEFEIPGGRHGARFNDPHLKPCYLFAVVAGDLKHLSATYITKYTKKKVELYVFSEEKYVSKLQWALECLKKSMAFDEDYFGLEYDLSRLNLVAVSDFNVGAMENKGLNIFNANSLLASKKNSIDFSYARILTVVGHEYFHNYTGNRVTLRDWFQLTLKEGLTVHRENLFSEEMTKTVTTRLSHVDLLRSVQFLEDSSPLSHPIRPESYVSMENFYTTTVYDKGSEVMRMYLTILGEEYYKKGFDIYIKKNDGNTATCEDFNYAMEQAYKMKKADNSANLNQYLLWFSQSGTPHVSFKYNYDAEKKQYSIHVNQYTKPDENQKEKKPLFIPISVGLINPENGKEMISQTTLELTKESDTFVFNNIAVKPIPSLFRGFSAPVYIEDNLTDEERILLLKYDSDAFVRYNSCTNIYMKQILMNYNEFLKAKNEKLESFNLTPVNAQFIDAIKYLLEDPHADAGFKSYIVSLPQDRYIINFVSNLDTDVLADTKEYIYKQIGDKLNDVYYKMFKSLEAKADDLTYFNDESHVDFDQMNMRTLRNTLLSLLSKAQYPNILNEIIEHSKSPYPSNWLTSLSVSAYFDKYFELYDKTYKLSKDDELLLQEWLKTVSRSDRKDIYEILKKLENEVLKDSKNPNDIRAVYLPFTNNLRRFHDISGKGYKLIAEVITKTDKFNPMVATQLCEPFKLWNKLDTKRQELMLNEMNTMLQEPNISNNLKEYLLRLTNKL
# [5] = molecular target: T4, Short transient receptor potential channel 4 (Mus musculus, UniProt Q9QUQ5); test: block of DAMGO-driven TRPC4 calcium entry – cell-based, HEK293 TRPC4/mu-opioid, Fluo-4 calcium, dose response (AID 434942); format: functional;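 also: potency of inhibitors blocking the TRPC4 calcium response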
# T4 sequence (Q9QUQ5 whole entry): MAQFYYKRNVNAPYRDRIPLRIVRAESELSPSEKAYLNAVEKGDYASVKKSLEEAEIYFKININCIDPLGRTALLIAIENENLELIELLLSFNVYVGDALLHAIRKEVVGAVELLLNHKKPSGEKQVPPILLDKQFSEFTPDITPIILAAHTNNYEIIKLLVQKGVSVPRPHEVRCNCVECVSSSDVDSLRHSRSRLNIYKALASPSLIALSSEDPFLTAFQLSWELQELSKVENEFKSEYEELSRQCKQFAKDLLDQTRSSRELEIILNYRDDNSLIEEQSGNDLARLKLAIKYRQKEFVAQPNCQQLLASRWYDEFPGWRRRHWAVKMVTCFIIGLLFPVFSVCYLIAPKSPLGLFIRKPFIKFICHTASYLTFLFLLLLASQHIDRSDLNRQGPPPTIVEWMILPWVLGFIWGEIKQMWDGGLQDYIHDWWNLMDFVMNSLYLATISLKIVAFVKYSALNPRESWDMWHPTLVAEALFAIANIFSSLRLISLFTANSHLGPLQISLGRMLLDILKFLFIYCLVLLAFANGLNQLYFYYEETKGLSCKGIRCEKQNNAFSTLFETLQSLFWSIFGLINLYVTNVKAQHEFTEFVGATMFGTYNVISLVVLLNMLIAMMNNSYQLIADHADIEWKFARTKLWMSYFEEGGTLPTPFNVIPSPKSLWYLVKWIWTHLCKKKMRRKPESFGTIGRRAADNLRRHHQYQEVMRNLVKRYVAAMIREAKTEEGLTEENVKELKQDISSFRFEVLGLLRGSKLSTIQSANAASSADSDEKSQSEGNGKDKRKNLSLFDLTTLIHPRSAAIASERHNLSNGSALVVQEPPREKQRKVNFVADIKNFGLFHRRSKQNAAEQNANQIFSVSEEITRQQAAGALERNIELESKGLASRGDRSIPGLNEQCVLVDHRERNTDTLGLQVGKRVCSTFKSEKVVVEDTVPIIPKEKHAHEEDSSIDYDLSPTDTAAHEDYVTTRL
# [6] = Counterscreen for inhibitors of Trypanosoma brucei methionyl tRNA synthetase (MetRS): Luminescence-based cell-based high throughput dose response assay to identify compounds that are cytotoxic to Jurkat human T lymphocyte cells.; format: functional
# [7] = molecular target: Luciferin 4-monooxygenase (Photinus pyralis, UniProt P08659); test: inhibition of purified Photinus pyralis luciferase – biochemical, luminescence, dose response (AID 1891)
# [8] = Luminescence Cell-Based Dose Confirmation HTS to Identify Inhibitors of Platelet Dense Granule Release. [Related pubchem assays: 1663 (Primary HTS), 1678 (Summary of Project)]; format: functional
# [9] = molecular target: T5, Fatty acid synthase (Homo sapiens, UniProt P49327); test: inhibition of human FAS-TE enzyme activity – biochemical, endpoint fluorescence intensity, uHTS hits, dose response (AID 624327); format: functional;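 also: fluorescence from hydrolysis of an O-methyl fluorescein acyl ester substrate by the enzyme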
# [10] = molecular target: T5, Fatty acid synthase; test: inhibition of human FAS-TE enzyme activity – biochemical, kinetic fluorescence intensity, dose response (AID 624326); format: functional;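 also: rate of fluorescence rise from hydrolysis of a fluorogenic O-methyl fluorescein ester substrate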
# [11] = system: INS1; test: INS-1E survival protection against cytokine death – cell-based, luminescence, retest, dose response (AID 449756); format: functional; details: Rattus norvegicus;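 also: cell death triggered by IL-1 beta plus TNF-alpha plus IFN-gamma mixture; protective hits raise ATP signal compared with cytokine alone wells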
# [12] = molecular target: T6, Microphthalmia-associated transcription factor (Homo sapiens, UniProt O75030); test: reducers of TRPM1 reporter luminescence, concentration series – cell-based, SK-MEL-5, cherry-picked, set 3, MITF inhibitor project, dose response (AID 493073); format: functional;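 also: SK-MEL-5 melanoma cells with luciferase driven by the MITF target TRPM1 promoter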
# T6 sequence (O75030 whole entry): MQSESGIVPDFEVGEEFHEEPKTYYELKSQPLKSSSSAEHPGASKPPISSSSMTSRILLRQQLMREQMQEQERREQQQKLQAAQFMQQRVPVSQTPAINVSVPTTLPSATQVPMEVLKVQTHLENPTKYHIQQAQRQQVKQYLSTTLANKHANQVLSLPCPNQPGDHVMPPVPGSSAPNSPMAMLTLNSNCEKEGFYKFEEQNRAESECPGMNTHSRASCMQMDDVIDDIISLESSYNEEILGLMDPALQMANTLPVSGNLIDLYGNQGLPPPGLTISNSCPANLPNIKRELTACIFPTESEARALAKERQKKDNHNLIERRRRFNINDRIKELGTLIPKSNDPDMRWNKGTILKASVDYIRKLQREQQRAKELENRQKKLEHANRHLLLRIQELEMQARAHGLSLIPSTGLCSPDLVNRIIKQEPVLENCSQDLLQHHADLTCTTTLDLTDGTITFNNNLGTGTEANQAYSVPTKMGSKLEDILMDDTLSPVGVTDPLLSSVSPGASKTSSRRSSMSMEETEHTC
# [13] = HEK-293T cell viability reduction – luminescence, B-cell screen hits, cytotoxicity control for BCR NF-kB inhibitor project, dose response (AID 489021); format: functional, cell-based;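 also: HEK-293T cells carrying an NF-kB luciferase reporter; cells exposed to compound for about 14 hours before viability readout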
# [14] = cells; format: functional
# T5 sequence (P49327 whole entry): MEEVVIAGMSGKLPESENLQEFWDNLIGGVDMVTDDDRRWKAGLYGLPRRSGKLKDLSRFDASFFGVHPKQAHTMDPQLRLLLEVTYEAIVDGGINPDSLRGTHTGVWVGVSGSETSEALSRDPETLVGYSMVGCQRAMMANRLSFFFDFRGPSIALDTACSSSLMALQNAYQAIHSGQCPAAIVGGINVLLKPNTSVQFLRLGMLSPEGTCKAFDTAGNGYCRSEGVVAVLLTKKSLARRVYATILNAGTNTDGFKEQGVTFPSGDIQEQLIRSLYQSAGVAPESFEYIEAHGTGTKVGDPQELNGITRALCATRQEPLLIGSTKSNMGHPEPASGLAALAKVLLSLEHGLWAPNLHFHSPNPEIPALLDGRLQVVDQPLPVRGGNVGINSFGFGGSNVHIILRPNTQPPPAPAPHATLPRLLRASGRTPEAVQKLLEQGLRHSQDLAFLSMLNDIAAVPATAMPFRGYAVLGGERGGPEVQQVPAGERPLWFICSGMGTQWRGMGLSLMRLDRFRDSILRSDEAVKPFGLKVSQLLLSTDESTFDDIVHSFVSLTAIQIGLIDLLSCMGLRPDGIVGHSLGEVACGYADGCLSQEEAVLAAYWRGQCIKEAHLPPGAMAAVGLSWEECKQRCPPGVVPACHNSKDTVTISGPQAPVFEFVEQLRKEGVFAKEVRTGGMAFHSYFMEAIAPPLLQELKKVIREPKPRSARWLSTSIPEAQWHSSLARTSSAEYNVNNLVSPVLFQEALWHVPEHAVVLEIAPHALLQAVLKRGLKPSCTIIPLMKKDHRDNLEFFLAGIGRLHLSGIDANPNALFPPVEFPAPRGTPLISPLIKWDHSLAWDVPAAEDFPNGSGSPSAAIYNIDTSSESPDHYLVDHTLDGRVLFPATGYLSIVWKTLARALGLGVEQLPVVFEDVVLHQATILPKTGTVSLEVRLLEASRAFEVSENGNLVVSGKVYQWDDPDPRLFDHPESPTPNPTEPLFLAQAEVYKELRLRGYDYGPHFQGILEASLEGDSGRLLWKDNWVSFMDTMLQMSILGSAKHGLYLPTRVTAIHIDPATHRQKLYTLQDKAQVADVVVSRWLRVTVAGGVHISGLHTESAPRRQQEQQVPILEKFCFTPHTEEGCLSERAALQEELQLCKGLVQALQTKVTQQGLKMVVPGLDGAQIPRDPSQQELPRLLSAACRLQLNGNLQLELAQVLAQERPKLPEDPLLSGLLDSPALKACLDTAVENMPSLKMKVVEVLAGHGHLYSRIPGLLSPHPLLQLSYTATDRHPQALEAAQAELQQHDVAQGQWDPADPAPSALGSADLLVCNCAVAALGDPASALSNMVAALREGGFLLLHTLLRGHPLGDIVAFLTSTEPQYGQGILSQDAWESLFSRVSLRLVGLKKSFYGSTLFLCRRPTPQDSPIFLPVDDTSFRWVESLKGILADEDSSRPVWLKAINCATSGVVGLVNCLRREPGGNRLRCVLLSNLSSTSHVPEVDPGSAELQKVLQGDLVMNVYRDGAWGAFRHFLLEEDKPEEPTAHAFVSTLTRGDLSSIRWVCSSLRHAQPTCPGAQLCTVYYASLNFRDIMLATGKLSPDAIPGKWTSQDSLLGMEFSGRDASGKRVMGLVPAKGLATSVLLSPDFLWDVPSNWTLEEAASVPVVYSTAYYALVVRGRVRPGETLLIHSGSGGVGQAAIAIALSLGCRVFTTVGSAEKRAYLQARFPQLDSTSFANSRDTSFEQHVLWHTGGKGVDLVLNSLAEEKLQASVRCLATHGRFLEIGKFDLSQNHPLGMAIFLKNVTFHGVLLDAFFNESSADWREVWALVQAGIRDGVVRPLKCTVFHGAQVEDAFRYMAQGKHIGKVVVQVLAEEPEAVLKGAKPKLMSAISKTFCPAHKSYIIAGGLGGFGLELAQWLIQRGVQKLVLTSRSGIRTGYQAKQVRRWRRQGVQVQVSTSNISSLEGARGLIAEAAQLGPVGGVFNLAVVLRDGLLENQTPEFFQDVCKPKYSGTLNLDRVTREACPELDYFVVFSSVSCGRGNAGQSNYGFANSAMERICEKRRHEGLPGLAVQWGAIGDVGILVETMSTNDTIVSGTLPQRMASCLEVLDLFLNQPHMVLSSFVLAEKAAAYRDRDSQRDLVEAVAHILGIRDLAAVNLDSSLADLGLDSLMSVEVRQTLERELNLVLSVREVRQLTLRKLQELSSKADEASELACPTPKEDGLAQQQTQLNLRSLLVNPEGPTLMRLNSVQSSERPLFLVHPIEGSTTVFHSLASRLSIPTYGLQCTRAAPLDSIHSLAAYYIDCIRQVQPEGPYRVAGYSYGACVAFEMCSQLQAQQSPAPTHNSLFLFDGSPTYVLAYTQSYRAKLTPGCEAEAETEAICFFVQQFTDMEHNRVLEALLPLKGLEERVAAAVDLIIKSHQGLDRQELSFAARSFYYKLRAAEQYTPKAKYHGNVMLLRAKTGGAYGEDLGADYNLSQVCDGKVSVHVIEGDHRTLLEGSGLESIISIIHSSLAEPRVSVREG
# Luciferin 4-monooxygenase, sequence (P08659 whole entry): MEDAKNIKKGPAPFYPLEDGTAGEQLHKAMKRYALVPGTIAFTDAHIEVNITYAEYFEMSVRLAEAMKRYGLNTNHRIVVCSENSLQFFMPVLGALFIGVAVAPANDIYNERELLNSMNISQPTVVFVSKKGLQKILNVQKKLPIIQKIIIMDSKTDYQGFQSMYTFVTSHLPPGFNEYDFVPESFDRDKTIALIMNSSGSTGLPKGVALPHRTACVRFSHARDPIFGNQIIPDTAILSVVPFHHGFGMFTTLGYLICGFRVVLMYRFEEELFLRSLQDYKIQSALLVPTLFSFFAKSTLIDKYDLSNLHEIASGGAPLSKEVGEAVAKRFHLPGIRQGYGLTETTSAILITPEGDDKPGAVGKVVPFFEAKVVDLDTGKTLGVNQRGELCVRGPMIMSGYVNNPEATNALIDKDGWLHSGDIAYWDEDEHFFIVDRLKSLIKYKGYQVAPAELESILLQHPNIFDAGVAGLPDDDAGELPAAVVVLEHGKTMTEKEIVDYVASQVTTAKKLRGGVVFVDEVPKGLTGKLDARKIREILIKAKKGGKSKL
smiles,measurement,setting,value
NS(=O)(=O)c1ccc(CCNC(=O)c2cc(-c3cc(Cl)ccc3O)n[nH]2)cc1,IC50,[1],119 µM (inactive)
same,IC50,[2],14.4 µM (inactive)
O=C(O)C1CCCCC1C(=O)Nc1cc(C(F)(F)F)ccc1Cl (stereo unspecified),IC50,[3],17.5 µM (active)
CCOc1cc(C2C3=C(CCCC3=O)OC3=C2C(=O)CCC3)cc([N+](=O)[O-])c1O,IC50,[4],46.3 µM (active)
Cc1ccc(C)c2nc(O)c(CN(CC3CCCO3)C(S)=NCc3ccco3)cc12 (stereo unspecified),EC50,[5],2.11 µM (active)
CCN(CC)C(=O)C(=O)c1cn(CC(=O)NCc2ccc3c(c2)OCO3)c2ccccc12,IC50,[6],83.3 µM (inactive)
same,IC50,[1],14.4 µM (inactive)
same,IC50,[2],4.83 µM (active)
Cc1ccccc1NC(=O)CN1C(=O)NC2(CCCCC2)C1=O,IC50,[3],71.9 µM (active)
O=C(O)c1ccc(N=Nc2c(O)[nH]c3ccccc23)cc1,EC50,[7],0.365 µM (active)
same,IC50,[3],84.3 µM (active)
same,EC50,[8],0.937 µM (active)
CC(C)(C)C1CCc2c(C(=O)NNC(=O)CCC(=O)O)csc2C1 (stereo unspecified),IC50,[3],14.5 µM (active)
O=C(O)CCCC(=O)N1N=C(c2c(O)nc3ccc(Cl)cc3c2-c2ccccc2)CC1c1cccs1 (stereo unspecified),IC50,[4],20.3 µM (active)
Cc1c(OCc2nn[nH]n2)ccc2c(-c3ccccc3)cc(=O)oc12,IC50,[9],1.59 µM (active)
same,IC50,[3],95.1 µM (active)
same,IC50,[10],1.61 µM (active)
Cc1ccc(-c2c[n+](-c3ccc(SC(F)F)cc3)c3n2CCC3)cc1,AC50,[11],5.09 µM (active)
same,AC50,[12],1.64 µM (active)
CC(=O)OC1(c2ccccc2)CCN(C2CCCCC2)CC1C (stereo unspecified),EC50,[5],1.06 µM (active)
CCCN1C(=O)/C(=C/c2c(N3CCNC(=O)C3CC(=O)OCC)nc3c(C)cccn3c2=O)SC1=S (stereo unspecified),IC50,[13],50 µM (inactive)
same,IC50,[4],34.1 µM (active)
O=C(CN1CCN(Cc2ccccc2Cl)CC1)N=Nc1c(O)[nH]c2ccccc12,EC50,[5],0.376 µM (active)
CCCn1c(=N)n(CC(=O)C(C)(C)C)c2ccccc21,EC50,[5],5.31 µM (active)
O=C(O)CCC(=O)Nc1sc2c(c1C(=O)Nc1cccc3ccccc13)CCCCC2,IC50,[3],51 µM (active)
OC(c1cc(Cl)cc(Cl)c1)c1nc(-c2ccccc2C(F)(F)F)c[nH]1 (stereo unspecified),IC50,[6],59.4 µM (inactive)
same,IC50,[1],4.05 µM (active)
same,IC50,[2],2.88 µM (active)
CCOc1ccc(NC(=O)CCC(=O)N/N=C/c2ccc([N+](=O)[O-])s2)cc1,AC50,[12],6.21 µM (active)
same,IC50,[14],13.6 µM (active)
Cc1ncc(CO)c(/C=N/NC(=O)c2ccc(Br)cc2)c1O,IC50,[4],14.4 µM (active)
